Measurements taken from publication PMC6452851, “Properties of a cryptic lysyl oxidase from haloarchaeon Haloterrigena turkmenica” (PeerJ, 2019).

How the values were obtained:
HTU-LOX (HTU-QV variant) = molecular target: T1, HTU-LOX (HTU-QV variant) (Haloterrigena turkmenica, UniProt D2RU96); assay: Amplex red / horseradish peroxidase fluorometric H2O2 release assay; type: biochemical; details: inhibitor, bought as fumarate salt; 0.1 mM used as negative control; 0.1 M borate pH 8.3, 37 °C
T1 construct: gene Htur_0264; delta1-91, catalytic domain, N-terminus Gln92-Val; His-tag kept (pQE-30); full-length protein 308 residues, 33,829 Da

HTU-LOX (HTU-AA variant) = molecular target: T2, HTU-LOX (HTU-AA variant) (Haloterrigena turkmenica, UniProt D2RU96); assay: as above; type: biochemical; details: 0.1 M borate pH 8.3, 37 °C; Cu2+-refolded enzyme
T2 construct: gene Htur_0264; delta1-34, signal peptide removed, N-terminus Ala35-Ala; His-tag kept (pQE-30); full-length protein 308 residues
T2 sequence (D2RU96 35-296): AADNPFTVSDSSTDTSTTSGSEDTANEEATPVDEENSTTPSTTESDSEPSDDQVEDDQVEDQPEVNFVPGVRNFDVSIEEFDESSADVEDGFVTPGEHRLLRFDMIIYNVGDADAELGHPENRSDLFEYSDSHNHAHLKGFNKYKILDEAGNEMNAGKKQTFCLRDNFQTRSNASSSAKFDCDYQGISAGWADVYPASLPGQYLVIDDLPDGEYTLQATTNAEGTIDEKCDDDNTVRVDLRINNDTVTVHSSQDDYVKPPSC

Structure (SMILES) | Amplex red / horseradish peroxidase fluorometric H2O2 release assay (HTU-LOX (HTU-QV variant)) | Amplex red / horseradish peroxidase fluorometric H2O2 release assay (HTU-LOX (HTU-AA variant))
N#CCCN [3-aminopropionitrile] | HTU-LOX demonstrated good sensitivity to the classical inhibitor of all LOXes—3-aminopropionitrile (BAPN) | 
NCCc1c[nH]cn1 [histamine] |  | Refolded proteins HTU-QV and HTU-AA exhibit activity against a wide variety of primary amines
